# Reference: patent publication US11987648B2, “Cyclohexapeptides as selective somatostatin SST5 receptor agonists” (Heptares Therapeutics Limited, priority 2018, dated 2024)
# Where two headings read alike, the source gives them in different places. *1 amine or outer side, *2 acyl side, *3 side chain or, on linkers, in order; H or OH if unused. Where a SMILES comes first, the peptide text is derived from it. Side-chain parts run from the residue outwards. [ ]: non-standard residue; d: D form. The star is where a group is joined. Ala(piperidin-4-yl) = O=C([C@H](CC1CCN([*:3])CC1)N[*:1])[*:2]; dTrp(5-OMe) = COc1ccc2[nH]cc(C[C@@H](N)C(=O)O)c2c1; dTrp(4-Me) = Cc1cccc2[nH]cc(C[C@@H](N)C(=O)O)c12; dTrp(5-Me) = Cc1ccc2[nH]cc(C[C@@H](N)C(=O)O)c2c1; Ala(piperazin-1-yl) = N[C@@H](CN1CCNCC1)C(=O)O; Phe(3-Br) = N[C@@H](Cc1cccc(Br)c1)C(=O)O; Phe(3-Cl) = N[C@@H](Cc1cccc(Cl)c1)C(=O)O; Phe(3-OMe) = COc1cccc(C[C@H](N)C(=O)O)c1; Phe(4-Cl) = N[C@@H](Cc1ccc(Cl)cc1)C(=O)O; Ethylenediamine = C(CN[*:2])N[*:1]; d(hPhe) = N[C@H](CCc1ccccc1)C(=O)O; Hyp = O=C(O)[C@@H]1C[C@@H](O)CN1; hPhe = N[C@@H](CCc1ccccc1)C(=O)O; 3Pal = N[C@@H](Cc1cccnc1)C(=O)O; Tic = O=C(O)[C@@H]1Cc2ccccc2CN1; Benzyl(4-Cl) = Clc1ccc(C*)cc1; Phg = N[C@H](C(=O)O)c1ccccc1; CO = O=C([*:1])[*:2]; Bn = c1ccc(C*)cc1
# Tests used:
# SST2 = SST2 (Homo sapiens, UniProt P30874); assay: Hit Hunter cAMP XS+ assay, SST2 activation via Gi (reduction of forskolin-stimulated cAMP); format: cell-based; conditions: for Emax: read-out: SST2 (EMax)
# Procedure: (§1) A Hit Hunter® cAMP XS+ assay was used to monitor activation of the SST2 and SST5 via the Gi G protein. Cells were pre-stimulated with forskolin to elicit a cAMP response and the potency and efficacy of somatostatin agonists to reduce cAMP was measured. Briefly cells (10,000 cells/well) were incubated (37° C.; 30 min) with compound ([…]) in media (2:1 HBSS/11 mM Hepes: cAMP XS+Ab reagent) in the presence of EC80 forskolin ([…] and 15 μM SST5). Signal was detected through incubation with 20 μL cAMP XS+ED/CL lysis cocktail ([…]; RT) followed by incubation with […] cAMP XS+EA reagent (180 min; RT). Microplates were read with a PerkinElmer Envision™ instrument for chemiluminescent signal detection.
# SST5 = SST5 (Homo sapiens, UniProt P35346); assay: Hit Hunter cAMP XS+ assay, SST5 activation via Gi (reduction of forskolin-stimulated cAMP); format: cell-based; conditions: for Emax: read-out: SST5 (EMax); for SST5/2 Selectivity: selectivity for SST5 over SST2
# Procedure: as §1
# [1] = reduction of forskolin-stimulated cAMP, 4-parameter logistic fit, read-out: SST2 pEC50 (converted)
# [2] = reduction of forskolin-stimulated cAMP, 4-parameter logistic fit, read-out: SST5 pEC50 (converted)
# SST2, sequence (P30874 whole entry): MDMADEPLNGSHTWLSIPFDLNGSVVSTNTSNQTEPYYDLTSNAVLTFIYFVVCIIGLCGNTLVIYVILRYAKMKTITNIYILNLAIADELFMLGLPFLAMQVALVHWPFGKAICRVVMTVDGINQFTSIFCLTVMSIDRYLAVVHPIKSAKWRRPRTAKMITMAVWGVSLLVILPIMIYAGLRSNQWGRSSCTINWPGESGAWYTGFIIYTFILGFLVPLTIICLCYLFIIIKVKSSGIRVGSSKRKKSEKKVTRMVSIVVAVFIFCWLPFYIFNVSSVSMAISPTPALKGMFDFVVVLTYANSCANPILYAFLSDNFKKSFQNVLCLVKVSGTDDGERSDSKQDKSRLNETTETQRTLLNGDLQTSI
# SST5, sequence (P35346 whole entry): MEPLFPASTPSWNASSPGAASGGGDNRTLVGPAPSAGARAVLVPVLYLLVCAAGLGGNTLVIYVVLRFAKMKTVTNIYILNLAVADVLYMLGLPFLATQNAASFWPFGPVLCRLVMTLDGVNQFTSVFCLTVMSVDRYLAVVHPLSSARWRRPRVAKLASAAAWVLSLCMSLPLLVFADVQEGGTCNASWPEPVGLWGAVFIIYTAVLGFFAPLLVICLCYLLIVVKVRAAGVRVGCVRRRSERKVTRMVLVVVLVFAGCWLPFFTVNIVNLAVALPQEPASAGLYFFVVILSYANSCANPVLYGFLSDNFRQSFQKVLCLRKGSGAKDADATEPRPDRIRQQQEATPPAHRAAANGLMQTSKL
SMILES,EC50 (SST2) [nM],Emax (SST2) [%],EC50 (SST5) [nM],Emax (SST5) [%],SST5/2 Selectivity (SST5),EC50 (SST2; [1]) [nM],EC50 (SST5; [2]) [nM]
NCCNC(=O)O[C@@H]1C[C@H]2C(=O)N[C@@H](c3ccccc3)C(=O)N[C@H](Cc3c[nH]c4ccccc34)C(=O)N[C@@H](CC3CCNCC3)C(=O)N[C@@H](Cc3ccc(OCc4ccccc4)cc3)C(=O)N[C@@H](Cc3ccccc3)C(=O)N2C1 [Example 1] (cyclo(F[Hyp]([CO-Ethylenediamine])[Phg][dW][Ala(piperidin-4-yl)]Y(Bn))),3160,62,25.1,98.6,130.7,–,–
NCCNC(=O)O[C@@H]1C[C@H]2C(=O)N[C@@H](Cc3ccccc3)C(=O)N[C@H](Cc3c[nH]c4ccccc34)C(=O)N[C@@H](CC3CCNCC3)C(=O)N[C@@H](Cc3ccc(OCc4ccccc4)cc3)C(=O)N[C@@H](Cc3ccccc3)C(=O)N2C1 [Example 2] (cyclo(F[Hyp]([CO-Ethylenediamine])F[dW][Ala(piperidin-4-yl)]Y(Bn))),398,96.4,20,105,21.9,–,–
NCCNC(=O)O[C@@H]1C[C@H]2C(=O)N[C@@H](CCc3ccccc3)C(=O)N[C@H](Cc3c[nH]c4ccccc34)C(=O)N[C@@H](CC3CCNCC3)C(=O)N[C@@H](Cc3ccc(OCc4ccccc4)cc3)C(=O)N[C@@H](Cc3cccnc3)C(=O)N2C1 [Example 3] (cyclo([3Pal][Hyp]([CO-Ethylenediamine])[hPhe][dW][Ala(piperidin-4-yl)]Y(Bn))),200,98.4,0.794,100,236.7,–,–
Cc1cccc2[nH]cc(C[C@H]3NC(=O)[C@H](c4ccccc4)NC(=O)[C@@H]4C[C@@H](OC(=O)NCCN)CN4C(=O)[C@H](Cc4ccccc4)NC(=O)[C@H](Cc4ccc(OCc5ccccc5)cc4)NC(=O)[C@H](CC4CCNCC4)NC3=O)c12 [Example 4] (cyclo(F[Hyp]([CO-Ethylenediamine])[Phg][dTrp(4-Me)][Ala(piperidin-4-yl)]Y(Bn))),251,103,12.6,105,23.6,–,–
COc1ccc2[nH]cc(C[C@H]3NC(=O)[C@H](c4ccccc4)NC(=O)[C@@H]4C[C@@H](OC(=O)NCCN)CN4C(=O)[C@H](Cc4ccccc4)NC(=O)[C@H](Cc4ccc(OCc5ccccc5)cc4)NC(=O)[C@H](CC4CCNCC4)NC3=O)c2c1 [Example 5] (cyclo(F[Hyp]([CO-Ethylenediamine])[Phg][dTrp(5-OMe)][Ala(piperidin-4-yl)]Y(Bn))),–,97.6,–,98.7,33.8,316,10
NCCNC(=O)O[C@@H]1C[C@H]2C(=O)N[C@@H](c3ccccc3)C(=O)N[C@H](Cc3c[nH]c4ccccc34)C(=O)N[C@@H](CC3CCNCC3)C(=O)N[C@@H](Cc3ccc(OCc4ccc(Cl)cc4)cc3)C(=O)N[C@@H](Cc3ccccc3)C(=O)N2C1 [Example 6] (cyclo(F[Hyp]([CO-Ethylenediamine])[Phg][dW][Ala(piperidin-4-yl)]Y(Benzyl(4-Cl)))),–,97.9,–,97.9,41.9,50.1,1.26
NCCNC(=O)O[C@@H]1C[C@H]2C(=O)N[C@@H](c3ccccc3)C(=O)N[C@H](Cc3c[nH]c4ccccc34)C(=O)N[C@@H](CC3CCNCC3)C(=O)N[C@@H](Cc3ccc(OCc4ccccc4)cc3)C(=O)N[C@@H](Cc3cccc(Cl)c3)C(=O)N2C1 [Example 7] (cyclo([Hyp]([CO-Ethylenediamine])[Phg][dW][Ala(piperidin-4-yl)]Y(Bn)[Phe(3-Cl)])),–,99.2,–,102,19.3,10,0.501
NCCNC(=O)O[C@@H]1C[C@H]2C(=O)N[C@@H](c3ccccc3)C(=O)N[C@H](Cc3c[nH]c4ccccc34)C(=O)N[C@@H](CC3CCNCC3)C(=O)N[C@@H](Cc3ccc(OCc4ccccc4)cc3)C(=O)N[C@@H](Cc3ccc(Cl)cc3)C(=O)N2C1 [Example 8] (cyclo([Hyp]([CO-Ethylenediamine])[Phg][dW][Ala(piperidin-4-yl)]Y(Bn)[Phe(4-Cl)])),–,101,–,102,22.7,31.6,1.26
COc1ccc(C[C@@H]2NC(=O)[C@H](Cc3ccc(OCc4ccccc4)cc3)NC(=O)[C@H](CC3CCNCC3)NC(=O)[C@@H](Cc3c[nH]c4ccccc34)NC(=O)[C@H](c3ccccc3)NC(=O)[C@@H]3C[C@@H](OC(=O)NCCN)CN3C2=O)cc1 [Example 9] (cyclo([Hyp]([CO-Ethylenediamine])[Phg][dW][Ala(piperidin-4-yl)]Y(Bn)Y(Me))),–,102,–,106,23.3,50.1,2.51
NCCNC(=O)O[C@@H]1C[C@H]2C(=O)N[C@@H](c3ccccc3)C(=O)N[C@H](Cc3c[nH]c4ccccc34)C(=O)N[C@@H](CC3CCNCC3)C(=O)N[C@@H](Cc3ccc(OCc4ccccc4)cc3)C(=O)N[C@@H](Cc3cccc(Br)c3)C(=O)N2C1 [Example 10] (cyclo([Hyp]([CO-Ethylenediamine])[Phg][dW][Ala(piperidin-4-yl)]Y(Bn)[Phe(3-Br)])),–,101,–,98,38.9,20,0.501
NCCNC(=O)O[C@@H]1C[C@H]2C(=O)N[C@@H](c3ccccc3)C(=O)N[C@H](Cc3c[nH]c4ccccc34)C(=O)N[C@@H](CC3CCNCC3)C(=O)N[C@@H](Cc3ccc(OCc4ccccc4)cc3)C(=O)N[C@@H](Cc3cccnc3)C(=O)N2C1 [Example 11] (cyclo([3Pal][Hyp]([CO-Ethylenediamine])[Phg][dW][Ala(piperidin-4-yl)]Y(Bn))),–,98,–,99.4,48.2,200,3.98
COc1cccc(C[C@@H]2NC(=O)[C@H](Cc3ccc(OCc4ccccc4)cc3)NC(=O)[C@H](CC3CCNCC3)NC(=O)[C@@H](Cc3c[nH]c4ccccc34)NC(=O)[C@H](c3ccccc3)NC(=O)[C@@H]3C[C@@H](OC(=O)NCCN)CN3C2=O)c1 [Example 12] (cyclo([Hyp]([CO-Ethylenediamine])[Phg][dW][Ala(piperidin-4-yl)]Y(Bn)[Phe(3-OMe)])),–,97.6,–,98.1,26.1,20,0.794
Cc1ccc2[nH]cc(C[C@H]3NC(=O)[C@H](c4ccccc4)NC(=O)[C@@H]4C[C@@H](OC(=O)NCCN)CN4C(=O)[C@H](Cc4ccccc4)NC(=O)[C@H](Cc4ccc(OCc5ccccc5)cc4)NC(=O)[C@H](CC4CCNCC4)NC3=O)c2c1 [Example 13] (cyclo(F[Hyp]([CO-Ethylenediamine])[Phg][dTrp(5-Me)][Ala(piperidin-4-yl)]Y(Bn))),–,97.6,–,98.7,87.2,200,2.51
NCCNC(=O)O[C@@H]1C[C@H]2C(=O)N[C@@H](CCc3ccccc3)C(=O)N[C@H](Cc3c[nH]c4ccccc34)C(=O)N[C@@H](CN3CCNCC3)C(=O)N[C@@H](Cc3ccc(OCc4ccccc4)cc3)C(=O)N[C@@H](Cc3cccnc3)C(=O)N2C1 [Example 14] (cyclo([3Pal][Hyp]([CO-Ethylenediamine])[hPhe][dW][Ala(piperazin-1-yl)]Y(Bn))),–,99.6,–,96.7,1876.8,158,0.0794
NCCNC(=O)O[C@@H]1C[C@H]2C(=O)N[C@H](CCc3ccccc3)C(=O)N[C@H](Cc3c[nH]c4ccccc34)C(=O)N[C@@H](CC3CCNCC3)C(=O)N[C@@H](Cc3ccc(OCc4ccccc4)cc3)C(=O)N[C@@H](Cc3cccnc3)C(=O)N2C1 [Example 15] (cyclo([3Pal][Hyp]([CO-Ethylenediamine])[d(hPhe)][dW][Ala(piperidin-4-yl)]Y(Bn))),–,55.5,–,101,531.3,> 10000,20
NCCNC(=O)O[C@@H]1C[C@H]2C(=O)N[C@H](CCc3ccccc3)C(=O)N[C@H](Cc3c[nH]c4ccccc34)C(=O)N[C@@H](CN3CCNCC3)C(=O)N[C@@H](Cc3ccc(OCc4ccccc4)cc3)C(=O)N[C@@H](Cc3cccnc3)C(=O)N2C1 [Example 16] (cyclo([3Pal][Hyp]([CO-Ethylenediamine])[d(hPhe)][dW][Ala(piperazin-1-yl)]Y(Bn))),–,79.5,–,100,2729.5,> 10000,3.98
NCCNC(=O)O[C@@H]1C[C@H]2C(=O)N[C@@H](CCc3ccccc3)C(=O)N[C@H](Cc3c[nH]c4ccccc34)C(=O)N[C@@H](CC3CCNCC3)C(=O)N[C@@H](Cc3ccc(OCc4ccccc4)cc3)C(=O)N3Cc4ccccc4C[C@H]3C(=O)N2C1 [Example 17] (cyclo([Hyp]([CO-Ethylenediamine])[hPhe][dW][Ala(piperidin-4-yl)]Y(Bn)[Tic])),–,97.3,–,104,789.4,398,0.501
C[C@@H](O)[C@@H]1NC(=O)[C@H](CCCCN)NC(=O)[C@@H](Cc2c[nH]c3ccccc23)NC(=O)[C@H](Cc2ccccc2)NC(=O)[C@@H](NC(=O)[C@H](N)Cc2ccccc2)CSSC[C@@H](C(=O)N[C@H](CO)[C@@H](C)O)NC1=O [Octreotide],–,98.5,–,–,–,–,–
